How the values were obtained:
HIV-1/LAI = assay: Antiviral activity against wild-type strain in acutely infected MT4 cells; type: cell-based; conditions: for EC50: Human immunodeficiency virus 1, table prints no unit (EC50 in μM), read-out: Median EC50
Procedure: (§1) Determination of the antiviral activity of a compound was done as described in Pauwels R. et al. (J Virol Methods 1988; 20(4):309-21). Various concentrations of the test compounds were brought into each well of a flat-bottom microtiter plate. Subsequently, HIV and MT4 cells were added to a final concentration of 200-250 50% cell culture infectious doses (CCID50)/well and 30,000 cells/well, respectively. After 5 days of incubation (37° C., 5% CO2), the cytopathic effect of the replicating virus was determined by the tetrazolium colorimetric MTT method. The dose protecting 50% of the cells from virus cytopathic effect was defined as the EC50, while the dose achieving 90% protection was defined as the EC90. Reporter gene assay The reporter gene assay used MT4-LTR-EGFP cells. Upon infection by HIV-1, the expression of the viral tat product increases transcription from the HIV-1 LTR promoter, leading to high-level expression of the reporter gene product. The assay procedure was similar to the CPE assay, except for the end reading of the assay, which was performed on day 3 by measuring the relative fluorescence of treated cultures and comparing this with the relative fluorescence of untreated cultures. The EC50 or the EC90 of a compound was defined as the concentration that inhibited the relative fluorescence by 50% or 90% respectively.
(§2) Cells are infected at a high MOI (such as 1-50 CCID50/cell), corresponding to >10^9 viral RNA copies/ml. These experiments have been designed to mimic the quasi-species variability that is observed in HIV infected individuals where 10^9 to 10^10 new viruses are produced daily with a mutation rate of 10^−4 to 10^−5. The infected MT4-LTR-EGFP cells are treated with inhibitors at 40, 200 nM, 1 μM and higher for a maximum of 30 days. The cultures are sub-cultivated and scored on virus-induced fluorescence and cytopathicity every 3-4 days. If full virus breakthrough (100% CPE) is observed the supernatants was collected and stored (new virus strain). If no full CPE was observed the cells were sub-cultivated and further grown in the presence of the same concentration compound till full virus breakthrough, with a maximum of 30 days. From the emerging virus populations a virus stock was grown in the absence of compounds and titrated. The sensitivities of the isolated strains to HIV-1 RT inhibitors were determined and the strains were genotyped.
(§3) In vitro drug selection experiments starting from wild-type HIV-1/LAI under pressure of compound 1 have been performed.

SM26 (K103N, Y181C) [1] = assay: Antiviral activity against starting strain SM26 in acutely infected MT4 cells; type: cell-based, HIV-1; conditions: for EC50: Human immunodeficiency virus 1, no selecting compound, unit inferred, read-out: Median EC50; for FC (fold change in resistance, ratio of EC50 vs wild type): no selecting compound
Procedure: as §1, §2, §3

[2] = tested on: SM26-derived strain K103N, Y181C, E194E/K; assay: Antiviral activity against strain selected with compound 1 0.040 μM, acutely infected MT4 cells; type: cell-based, HIV-1; conditions: SM26 selected with Compound 1 0.040 μM, breakthrough day 7, additional E194E/K; for EC50: Human immunodeficiency virus 1, MT4, 168 h, unit inferred, read-out: Median EC50
Procedure: as §1, §2, §3

[3] = tested on: SM26-derived strain K103N, Y181C, L100I, V189V/I, E194G/E; assay: Antiviral activity against strain selected with compound 1 0.200 μM (day 7), acutely infected MT4 cells; type: cell-based, HIV-1; conditions: SM26 selected with Compound 1 0.200 μM, breakthrough day 7, additional L100I; for EC50: Human immunodeficiency virus 1, MT4, 168 h, unit inferred, read-out: Median EC50
Procedure: as §1, §2, §3

[4] = tested on: SM26-derived strain K103N, Y181C, L100I, E194G; assay: Antiviral activity against strain selected with compound 1 1.000 μM (day 11), acutely infected MT4 cells; type: cell-based, HIV-1; conditions: SM26 selected with Compound 1 1.000 μM, breakthrough day 11, additional L100I; for EC50: Human immunodeficiency virus 1, MT4, 264 h, unit inferred, read-out: Median EC50
Procedure: as §1, §2, §3

[5] = tested on: SM26-derived strain K103N, Y181C, L100I, V189V/I, E194G/E, R356R/K; assay: Antiviral activity against strain selected with compound 1 0.200 μM (day 9), acutely infected MT4 cells; type: cell-based, HIV-1; conditions: SM26 selected with Compound 1 0.200 μM, breakthrough day 9, additional L100I; for EC50: Human immunodeficiency virus 1, MT4, 216 h, unit inferred, read-out: Median EC50
Procedure: as §1, §2, §3

[6] = tested on: SM26-derived strain K103N, Y181C, L100I, V189I, E194G; assay: Antiviral activity against strain selected with compound 1 1.000 μM (day 13), acutely infected MT4 cells; type: cell-based, HIV-1; conditions: SM26 selected with Compound 1 1.000 μM, breakthrough day 13, additional L100I; for EC50: Human immunodeficiency virus 1, MT4, 312 h, unit inferred, read-out: Median EC50
Procedure: as §1, §2, §3

SM26 (K103N, Y181C) [7] = assay: In vitro selection of resistant strains at high MOI (virus breakthrough); type: cell-based, HIV-1

| Structure (SMILES) | FC (fold change in resistance, ratio of EC50 vs wild type) (HIV-1/LAI) | EC50 (HIV-1/LAI) [µM] | EC50 (SM26 (K103N, Y181C) [1]) [nM] | FC (fold change in resistance, ratio of EC50 vs wild type) (SM26 (K103N, Y181C) [1]) | EC50 [2] [nM] | FC (fold change in resistance, ratio of EC50 vs wild type) [2] | EC50 [3] [nM] | FC (fold change in resistance, ratio of EC50 vs wild type) [3] | EC50 [4] [nM] | EC50 [5] [nM] | FC (fold change in resistance, ratio of EC50 vs wild type) [5] | EC50 [6] [nM] | FC (fold change in resistance, ratio of EC50 vs wild type) [6] | FC (fold change in resistance, ratio of EC50 vs wild type) [4] | Days to breakthrough (SM26 (K103N, Y181C) [7]; 0.040 μM, selected E194E/K) | Days to breakthrough (SM26 (K103N, Y181C) [7]; 0.200 μM (first culture), selected L100I, V189V/I, E194G/E) | Days to breakthrough (SM26 (K103N, Y181C) [7]; 0.200 μM (second culture), selected L100I, V189V/I, E194G/E, R356R/K) | Days to breakthrough (SM26 (K103N, Y181C) [7]; 1.000 μM (first culture), selected L100I, E194G) | Days to breakthrough (SM26 (K103N, Y181C) [7]; 1.000 μM (second culture), selected L100I, V189I, E194G) |
| --- | --- | --- | --- | --- | --- | --- | --- | --- | --- | --- | --- | --- | --- | --- | --- | --- | --- | --- | --- |
| O=C1Nc2ccc(Cl)cc2[C@@](C#CC2CC2)(C(F)(F)F)O1 [Efavirenz] | 1 | 0.001 | 36.7 | 37 | 32.7 | 33 | 2750 | 2.747 | 6730 | 56.5 | 57 | 3600 | 3.595 | – | – | – | – | – | – |
| Cc1ccnc2c1NC(=O)c1cccnc1N2C1CC1 [Nevirapine] | 1 | 0.0763 | > 10000 | >131 | > 10000 | >131 | > 10000 | >131 | > 10000 | > 10000 | >131 | > 10000 | >131 | >131 | – | – | – | – | – |
| Cc1cc(C#N)cc(C)c1Oc1nc(Nc2ccc(C#N)cc2)nc(N)c1Br [Compound 1, Benzonitrile, 4-[[6-amino-5-bromo-2-[(4-cyanophenyl)-amino]-4-pyrimidinyl]oxy]-3,5-dimethyl-] | 1 | 0.0014 | 5 | 4 | 7.8 | 6 | 149 | 106 | 668 | 26.8 | 19 | 261 | 187 | 477 | day 7 | day 7 | day 9 | day 11 | day 13 |
